Reference: the supplement of paper PMC10307832

How the values were obtained:
Experiment in all cases: relative viability (nuclei count vs DMSO), 5 days (fraction); higher = more cells survive
AZD1208 + Navitoclax = compound: N[C@@H]1CCCN(c2c(/C=C3\SC(=O)NC3=O)cccc2-c2ccccc2)C1 [AZD1208] + CC1(C)CCC(c2ccc(Cl)cc2)=C(CN2CCN(c3ccc(C(=O)NS(=O)(=O)c4ccc(N[C@H](CCN5CCOCC5)CSc5ccccc5)c(S(=O)(=O)C(F)(F)F)c4)cc3)CC2)C1 [Navitoclax] (partner 0.5 µM)
Outline: (§1)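 Relative viability equals treated-well nuclei counts divided by vehicle-well nuclei counts. Counts came from 4× images of lung cancer cell lines grown in 1536-well plates for 5 days after pin-tool dosing on the day after seeding. Dosing used one drug alone or a fixed anchor-drug dose plus five library-drug doses (not always all listed) in √10 steps, and values are medians of duplicate plates.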

AZD1208 + Pemetrexed = compound: N[C@@H]1CCCN(c2c(/C=C3\SC(=O)NC3=O)cccc2-c2ccccc2)C1 [AZD1208] + Nc1nc2[nH]cc(CCc3ccc(C(=O)N[C@@H](CCC(=O)O)C(=O)O)cc3)c2c(=O)[nH]1 [Pemetrexed] (partner 0.2 µM)
Outline: as §1

AZD1208 + Crizotinib = compound: N[C@@H]1CCCN(c2c(/C=C3\SC(=O)NC3=O)cccc2-c2ccccc2)C1 [AZD1208] + C[C@@H](Oc1cc(-c2cnn(C3CCNCC3)c2)cnc1N)c1c(Cl)ccc(F)c1Cl [Crizotinib] (partner 1 µM)
Outline: as §1

XMD14-99 + Tozasertib = compound: CN1CCN(CC1)C2=CC(=C(C=C2)NC3=NC(=C(S3)C(=O)C4=C(C=CC=C4Cl)Cl)N)OC [XMD14-99] + Cc1cc(Nc2cc(N3CCN(C)CC3)nc(Sc3ccc(NC(=O)C4CC4)cc3)n2)n[nH]1 [Tozasertib] (partner 0.1 µM)
Outline: as §1

Row | Cell Line | relative viability (AZD1208 + Navitoclax; first compound 0.08 µM) | relative viability (AZD1208 + Navitoclax; first compound 0.253 µM) | relative viability (AZD1208 + Navitoclax; first compound 0.8 µM) | relative viability (AZD1208 + Navitoclax; first compound 2.53 µM) | relative viability (AZD1208 + Navitoclax; first compound 8 µM) | relative viability (AZD1208 + Pemetrexed; first compound 0.08 µM) | relative viability (AZD1208 + Pemetrexed; first compound 0.253 µM) | relative viability (AZD1208 + Pemetrexed; first compound 0.8 µM) | relative viability (AZD1208 + Pemetrexed; first compound 2.53 µM) | relative viability (AZD1208 + Pemetrexed; first compound 8 µM) | relative viability (AZD1208 + Crizotinib; first compound 0.08 µM) | relative viability (AZD1208 + Crizotinib; first compound 0.253 µM) | relative viability (AZD1208 + Crizotinib; first compound 0.8 µM) | relative viability (AZD1208 + Crizotinib; first compound 2.53 µM) | relative viability (AZD1208 + Crizotinib; first compound 8 µM) | relative viability (XMD14-99 + Tozasertib; first compound 0.08 µM) | relative viability (XMD14-99 + Tozasertib; first compound 0.8 µM) | relative viability (XMD14-99 + Tozasertib; first compound 2.53 µM) | relative viability (XMD14-99 + Tozasertib; first compound 8 µM)
1 | CAL-12T | 1.28 | 1.39 | 1.08 | 1.28 | 0.956 | 1.21 | 1.22 | 1.18 | 1.23 | 1.14 | 0.745 | 0.838 | 0.718 | 0.85 | 0.471 | 0.331 | 0.331 | 0.307 | 0.3
2 | NCI-H596 | 0.912 | 1.02 | 0.85 | 0.827 | 0.651 | 0.523 | 0.507 | 0.537 | 0.498 | 0.407 | 0.853 | 1.04 | 0.837 | 0.955 | 0.711 | 0.881 | 0.839 | 0.892 | 0.803
3 | NCI-H1755 | 0.991 | 0.989 | 1.02 | 0.952 | 0.786 | 0.451 | 0.457 | 0.532 | 0.426 | 0.413 | 0.863 | 0.939 | 0.8 | 0.777 | 0.728 | 0.519 | 0.531 | 0.478 | 0.512
4 | NCI-H2085 | 1.02 | 1.29 | 1.13 | 1.14 | 1.02 | 0.912 | 0.971 | 0.936 | 0.817 | 0.893 | 0.703 | 0.906 | 0.951 | 0.865 | 0.882 | 0.752 | 0.779 | 0.716 | 0.464
5 | NCI-H2023 | 1.02 | 0.99 | 0.977 | 0.934 | 0.959 | 0.263 | 0.207 | 0.241 | 0.243 | 0.229 | 0.618 | 0.514 | 0.563 | 0.6 | 0.446 | 0.396 | 0.332 | 0.302 | 0.185
